The record followed here is US8269015B2, “4-azetidinyl-1-heteroaryl-cyclohexane antagonists of CCR2” (Janssen Pharmaceutica N.V., priority 2009, dated 2012).

One may read the IC50 as the concentration that inhibits the measured activity by half.

This assay deals with T1, CCR2 (Homo sapiens, UniProt P41597).
T1 construct: host or cells: THP-1 (human monocytic cell line)
T1 sequence (P41597 1-360 isoform P41597-2): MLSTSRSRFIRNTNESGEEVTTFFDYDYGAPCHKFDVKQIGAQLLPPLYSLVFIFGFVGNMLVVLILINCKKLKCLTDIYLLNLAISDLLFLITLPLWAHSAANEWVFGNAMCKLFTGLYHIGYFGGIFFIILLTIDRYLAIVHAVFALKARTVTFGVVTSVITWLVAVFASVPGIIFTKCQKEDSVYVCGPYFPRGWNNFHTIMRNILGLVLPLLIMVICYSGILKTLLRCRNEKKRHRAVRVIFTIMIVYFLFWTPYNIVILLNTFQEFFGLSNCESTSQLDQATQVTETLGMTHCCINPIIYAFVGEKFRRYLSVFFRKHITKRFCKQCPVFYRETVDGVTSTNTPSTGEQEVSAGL
Description: MCP-1 Receptor Binding Assay in THP-1 Cells (125I labeled MCP-1). The following applies: 0.5 nM 125I labeled MCP-1, 2 hours at 30° C., read-out: Inhibition of MCP-1 Binding IC50, CCR2 Binding. As for the experimental part: Compounds of the invention were subjected to various representative biological tests. […] MCP-1 Receptor Binding Assay in THP-1 Cells
Human monocytic cell line THP-1 cells were obtained from American Type Culture Collection (Manassas, Va., USA). […] The cell density was maintained […].
1 μM cold MCP-1 was used for nonspecific binding.
Consider `CNc1ccncc1C1CCC(N2CC(NC(=O)CNC(=O)c3cccc(C(F)(F)F)c3)C2)CC1` (stereo not shown) [Example 29a, N-({1-[4-(4-Methylamino-pyridin-3-yl)-cyclohexyl]-azetidin-3-ylcarbamoyl}-methyl)-3-trifluoromethyl-benzamide], for which the half-inhibitory concentration (IC50) is 1200 nM. In the case of `O=C(CNC(=O)c1cccc(C(F)(F)F)c1)NC1CN(C2CCC(c3cnc(C(=O)O)s3)CC2)C1` (single isomer, unassigned) [Example 52a, 5-(4-{3-[2-(3-Trifluoromethyl-benzoylamino)-acetylamino]-azetidin-1-yl}-cyclohexyl)-thiazole-2-carboxylic acid] it was 2800 nM. As to `COc1ncccc1C1CCC(N2CC(NC(=O)CNC(=O)c3cccc(C(F)(F)F)c3)C2)CC1` (stereo not shown) [Example 2, N-({1-[4-(2-Methoxy-pyridin-3-yl)-cyclohexyl]-azetidin-3-ylcarbamoyl}-methyl)-3-trifluoromethyl-benzamide], the IC50 came out at 210 nM. As to `CN(C)c1ccncc1C1CCC(N2CC(NC(=O)CNC(=O)c3cccc(C(F)(F)F)c3)C2)CC1` (stereo not shown) [Example 29b, N-({1-[4-(4-Dimethylamino-pyridin-3-yl)-cyclohexyl]-azetidin-3-ylcarbamoyl}-methyl)-3-trifluoromethyl-benzamide], the IC50 was found to be 10000 nM.

For `N#CNc1cccc(C2CCC(N3CC(NC(=O)CNC(=O)c4cccc(C(F)(F)F)c4)C3)CC2)n1` (stereo not shown) [Example 25, N-({1-[4-(6-Cyanoamino-pyridin-2-yl)-cyclohexyl]-azetidin-3-ylcarbamoyl}-methyl)-3-trifluoromethyl-benzamide], the concentration for half-maximal inhibition (IC50) stood at 210 nM. In the case of `O=C(CNC(=O)c1cccc(C(F)(F)F)c1)NC1CN(C2CCC(c3noc(N4CCCC4)n3)CC2)C1` (mixture of isomers) [Example 59, N-({1-[4-(5-Pyrrolidin-1-yl-[1,2,4]oxadiazol-3-yl)-cyclohexyl]-azetidin-3-ylcarbamoyl}-methyl)-3-trifluoromethyl-benzamide], the IC50 was determined as 400 nM.

Take `Cn1cc(C2CCC(N3CC(NC(=O)CNC(=O)c4cccc(C(F)(F)F)c4)C3)CC2)ccc1=O` (single isomer, unassigned) [Example 38a, N-({1-[4-(1-Methyl-6-oxo-1,6-dihydro-pyridin-3-yl)-cyclohexyl]-azetidin-3-ylcarbamoyl}-methyl)-3-trifluoromethyl-benzamide]: the half-inhibitory concentration (IC50) is 46 nM. Regarding `Nc1ccc(C2CCC(N3CC(NC(=O)CNC(=O)c4cccc(C(F)(F)F)c4)C3)CC2)nc1` (stereo not shown) [Example 21, N-({1-[4-(5-Amino-pyridin-2-yl)-cyclohexyl]-azetidin-3-ylcarbamoyl}-methyl)-3-trifluoromethyl-benzamide], the IC50 stood at 85 nM. In the case of `Cn1ccc(C2CCC(N3CC(NC(=O)CNC(=O)c4cccc(C(F)(F)F)c4)C3)CC2)cc1=O` (single isomer, unassigned) [Example 46a, N-({1-[4-(1-Methyl-2-oxo-1,2-dihydro-pyridin-4-yl)-cyclohexyl]-azetidin-3-ylcarbamoyl}-methyl)-3-trifluoromethyl-benzamide] it was 550 nM; in that of `Nc1cncc(C2CCC(N3CC(NC(=O)CNC(=O)c4cccc(C(F)(F)F)c4)C3)CC2)c1` (stereo not shown) [Example 32, N-({1-[4-(5-Amino-pyridin-3-yl)-cyclohexyl]-azetidin-3-ylcarbamoyl}-methyl)-3-trifluoromethyl-benzamide], 320 nM. The result for `COC(=O)Nc1ncc(C2CCC(N3CC(NC(=O)CNC(=O)c4cccc(C(F)(F)F)c4)C3)CC2)s1` (single isomer, unassigned) [Example 51a, [5-(4-{3-[2-(3-Trifluoromethyl-benzoylamino)-acetylamino]-azetidin-1-yl}-cyclohexyl)-thiazol-2-yl]-carbamic acid methyl ester] reads 340 nM; that for `Nc1ncccc1C1CCC(N2CC(NC(=O)CNC(=O)c3cccc(C(F)(F)F)c3)C2)CC1` (single isomer, unassigned) [Example 31a, N-({1-[4-(2-Amino-pyridin-3-yl)-cyclohexyl]-azetidin-3-ylcarbamoyl}-methyl)-3-trifluoromethyl-benzamide], 150 nM; that for `CS(=O)(=O)N(c1ccc(C2CCC(N3CC(NC(=O)CNC(=O)c4cccc(C(F)(F)F)c4)C3)CC2)nc1)S(C)(=O)=O` (stereo not shown) [Example 14, N-({1-[4-(5-bis-{Methanesulfonyl}-amino-pyridin-2-yl)-cyclohexyl]-azetidin-3-ylcarbamoyl}-methyl)-3-trifluoromethyl-benzamide], 280 nM. Consider `CS(=O)(=O)Nc1cccc(C2CCC(N3CC(NC(=O)CNC(=O)c4cccc(C(F)(F)F)c4)C3)CC2)n1` (stereo not shown) [Example 26, N-({1-[4-(6-Methanesulfonylamino-pyridin-2-yl)-cyclohexyl]-azetidin-3-ylcarbamoyl}-methyl)-3-trifluoromethyl-benzamide], for which the IC50 is 840 nM.

`Cc1cc(C2CCC(N3CC(NC(=O)CNC(=O)c4cccc(C(F)(F)F)c4)C3)CC2)c[nH]c1=O` (single isomer, unassigned) [Example 44a, N-({1-[4-(5-Methyl-6-oxo-1,6-dihydro-pyridin-3-yl)-cyclohexyl]-azetidin-3-ylcarbamoyl}-methyl)-3-trifluoromethyl-benzamide]: the IC50 was found to be 250 nM.

Take `CS(=O)(=O)Nc1cccnc1C1CCC(N2CC(NC(=O)CNC(=O)c3cccc(C(F)(F)F)c3)C2)CC1` (stereo not shown) [Example 19, N-({1-[4-(3-Methanesulfonylamino-pyridin-2-yl)-cyclohexyl]-azetidin-3-ylcarbamoyl}-methyl)-3-trifluoromethyl-benzamide]: the IC50 came out at 1900 nM.

Take `O=C(CNC(=O)c1cccc(C(F)(F)F)c1)NC1CN(C2CCC(c3ccc(NC(=O)C(F)(F)F)cn3)CC2)C1` (stereo not shown) [Example 16, N-[(1-{4-[5-(2,2,2-Trifluoro-acetylamino)-pyridin-2-yl]-cyclohexyl}-azetidin-3-ylcarbamoyl)-methyl]-3-trifluoromethyl-benzamide]: the IC50 came to 95 nM. For the compound `O=C(CNC(=O)c1cccc(C(F)(F)F)c1)NC1CN(C2CCC(c3c[nH]c4ccccc34)CC2)C1` (stereo not shown) [Example 50, N-({1-[4-(1H-Indol-3-yl)-cyclohexyl]-azetidin-3-ylcarbamoyl}-methyl)-3-trifluoromethyl-benzamide], the IC50 was determined as 920 nM. With `O=C(CNC(=O)c1cccc(C(F)(F)F)c1)NC1CN(C2CCC(c3ccc(=O)[nH]c3)CC2)C1` (single isomer, unassigned) [Example 37a, N-({1-[4-(6-Oxo-1,6-dihydro-pyridin-3-yl)-cyclohexyl]-azetidin-3-ylcarbamoyl}-methyl)-3-trifluoromethyl-benzamide], the IC50 is 170 nM.
